Data reported in US20250228835A1, “PYRIDINYLOXYPYRIDINES AND RELATED COMPOUNDS AND THEIR USE IN TREATING MEDICAL CONDITIONS” (Rectify Pharmaceuticals, Inc., priority 2024, published 2025).

Legend:
ABCC6 WT = target: T1, ABCC6 WT (Homo sapiens, UniProt O95255); test: ABCC6 WT assay: HiBit protein expression; type: cell-based; details: HEK-293 cells transiently expressing HiBit-tagged ABCC6 WT; 24 h treatment; top concentration 20 μM; read-out: ABCC6 WT EC50, Emax
T1 construct: expressed in transfected cells; host or cells: HEK-293 (transient, Lipofectamine 2000)
T1 sequence (O95255 whole entry): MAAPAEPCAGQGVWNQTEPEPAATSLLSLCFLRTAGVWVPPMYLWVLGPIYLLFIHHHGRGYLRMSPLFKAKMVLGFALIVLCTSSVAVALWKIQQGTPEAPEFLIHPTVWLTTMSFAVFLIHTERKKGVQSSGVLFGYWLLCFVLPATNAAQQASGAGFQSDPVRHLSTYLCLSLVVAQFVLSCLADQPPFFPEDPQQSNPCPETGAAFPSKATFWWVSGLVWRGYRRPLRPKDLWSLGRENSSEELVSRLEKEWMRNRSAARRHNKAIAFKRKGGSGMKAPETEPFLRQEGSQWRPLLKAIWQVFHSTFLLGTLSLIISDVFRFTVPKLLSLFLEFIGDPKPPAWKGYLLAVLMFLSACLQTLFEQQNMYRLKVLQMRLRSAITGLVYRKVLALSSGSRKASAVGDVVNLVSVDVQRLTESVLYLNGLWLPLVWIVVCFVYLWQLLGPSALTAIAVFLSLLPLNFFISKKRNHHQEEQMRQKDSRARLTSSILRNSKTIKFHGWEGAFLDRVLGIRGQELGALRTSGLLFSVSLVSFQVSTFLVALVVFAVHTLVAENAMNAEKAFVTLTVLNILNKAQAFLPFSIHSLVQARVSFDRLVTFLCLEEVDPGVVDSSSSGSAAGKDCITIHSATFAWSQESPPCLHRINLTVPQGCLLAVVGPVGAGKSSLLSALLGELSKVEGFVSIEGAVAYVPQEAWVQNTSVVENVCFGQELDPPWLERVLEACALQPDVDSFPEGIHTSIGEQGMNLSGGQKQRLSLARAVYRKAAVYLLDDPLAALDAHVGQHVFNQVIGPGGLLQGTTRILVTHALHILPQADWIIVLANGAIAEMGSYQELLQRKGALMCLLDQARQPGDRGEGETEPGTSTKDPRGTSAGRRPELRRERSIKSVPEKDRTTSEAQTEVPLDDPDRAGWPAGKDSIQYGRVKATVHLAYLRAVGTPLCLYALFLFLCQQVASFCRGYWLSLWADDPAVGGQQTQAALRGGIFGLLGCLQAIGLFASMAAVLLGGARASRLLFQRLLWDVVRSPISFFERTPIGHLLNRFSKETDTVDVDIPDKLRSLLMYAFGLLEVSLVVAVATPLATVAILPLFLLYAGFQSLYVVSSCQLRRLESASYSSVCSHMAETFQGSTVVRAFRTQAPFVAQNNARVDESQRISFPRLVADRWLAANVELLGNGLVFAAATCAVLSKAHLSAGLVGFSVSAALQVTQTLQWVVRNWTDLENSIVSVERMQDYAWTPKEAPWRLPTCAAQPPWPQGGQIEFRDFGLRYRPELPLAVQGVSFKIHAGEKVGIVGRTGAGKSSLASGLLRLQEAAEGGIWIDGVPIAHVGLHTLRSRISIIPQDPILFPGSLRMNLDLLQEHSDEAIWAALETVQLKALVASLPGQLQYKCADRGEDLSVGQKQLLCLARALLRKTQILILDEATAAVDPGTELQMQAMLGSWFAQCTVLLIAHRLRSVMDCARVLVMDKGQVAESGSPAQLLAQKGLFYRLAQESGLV
Procedure, shortened: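 HEK-293 cells transiently transfected with HiBit-tagged human ABCC6 WT cDNA, seeded 24 h post-transfection, treated 24 h at 37° C with ten 2-fold doses (top 20 μM final, 0.15% DMSO). HiBit lytic luminescence reports protein expression; Emax and EC50 derived.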

ABCD2 WT = target: T2, ABCD2 WT (Homo sapiens, UniProt Q9UBJ2); test: D2 correction dose-response assay: ABCD2 WT HiBit protein expression; type: cell-based; details: HEK-293/ABCD2 WT cells, 24 hours treatment, HiBit luminescence; class combines EC50 and Mean MaxAct (fold); read-out: ABCD2 WT EC50, Emax
T2 construct: expressed in transfected cells
T2 sequence (Q9UBJ2 1-740): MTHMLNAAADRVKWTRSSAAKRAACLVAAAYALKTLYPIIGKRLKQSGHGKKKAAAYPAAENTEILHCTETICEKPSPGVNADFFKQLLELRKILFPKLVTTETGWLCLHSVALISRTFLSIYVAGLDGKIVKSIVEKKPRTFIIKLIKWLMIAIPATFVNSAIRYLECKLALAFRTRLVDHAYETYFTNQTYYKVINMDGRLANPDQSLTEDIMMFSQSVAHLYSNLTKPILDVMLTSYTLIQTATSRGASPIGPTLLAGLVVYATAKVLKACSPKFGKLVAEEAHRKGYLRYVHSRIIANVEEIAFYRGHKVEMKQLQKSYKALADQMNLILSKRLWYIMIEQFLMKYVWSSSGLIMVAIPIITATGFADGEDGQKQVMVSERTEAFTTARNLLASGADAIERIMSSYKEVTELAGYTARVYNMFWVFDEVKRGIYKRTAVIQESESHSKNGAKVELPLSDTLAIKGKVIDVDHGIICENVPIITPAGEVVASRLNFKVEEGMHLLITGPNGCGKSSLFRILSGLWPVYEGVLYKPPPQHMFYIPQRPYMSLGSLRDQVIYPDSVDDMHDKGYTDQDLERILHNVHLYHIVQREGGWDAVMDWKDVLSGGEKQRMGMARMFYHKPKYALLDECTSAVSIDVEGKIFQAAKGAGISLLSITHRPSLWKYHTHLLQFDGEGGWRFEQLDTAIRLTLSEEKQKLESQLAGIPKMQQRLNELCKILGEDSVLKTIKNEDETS
Procedure, shortened: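 HEK-293 cells stably expressing HiBit-tagged human ABCD2 WT were treated with 11 doses (3-fold dilutions, top final 30 μM, 0.3% DMSO) for 24 h at 37 °C. Expression was measured by HiBit lytic luminescence after 1 h at 25 °C, giving EC50 and Emax.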

Row | Structure (SMILES) | EC50 (ABCC6 WT) [nM] | EC50 (ABCD2 WT) [nM]
1 | Cc1cc(C)c(Oc2nc(-c3cncc(Cl)c3)ccc2S(=O)(=O)NC(c2ccccn2)C(F)(F)F)c(C)c1 (single isomer, unassigned) [Compound I-79] | 1000 to 10000 | 1000 to 10000
2 | Cc1cc(C)c(Oc2nc(-c3cncc(Cl)c3)ccc2S(=O)(=O)NC(c2ccccn2)C(F)(F)F)c(C)c1 (single isomer, unassigned) [Compound I-80] | ≥ 25000 | 1000 to 10000
3 | Cc1cc(C)c(Oc2nc(-c3cncc(C(N)=O)c3)ccc2NS(C)(=O)=O)c(C2CC2)n1 [Compound I-1] | < 1000 | 1000 to 10000
4 | Cc1cc(C)c(Oc2nc(-c3cn[nH]c3)ccc2NS(C)(=O)=O)c(C2CC2)c1 [Compound I-2] | 10000 to 25000 | 10000 to 25000
5 | Cc1ccc(Oc2nc(-c3cncc(C#N)c3)ccc2NS(C)(=O)=O)c(C)n1 [Compound I-3] | < 1000 | 1000 to 10000
6 | Cc1cc(C)c(Oc2nc(-c3cncc(Cl)c3)ccc2N(C2CC2)S(C)(=O)=O)c(C)c1 [Compound I-42] | 1000 to 10000 | 1000 to 10000
7 | Cc1cc(C)c(Oc2nc(N3CC4(C3)CN(S(=O)(=O)C3CC3)C4)ccc2NS(C)(=O)=O)c(C)c1 [Compound I-43] | ≥ 25000 | > 25000
8 | Cc1cc(C)c(Oc2nc(N3CCN(S(=O)(=O)C4CC4)CC3)ccc2NS(C)(=O)=O)c(C)c1 [Compound I-44] | 1000 to 10000 | 10000 to 25000
9 | Cc1cc(C)c(Oc2nc(-c3ccc(C#N)nc3)ccc2NS(C)(=O)=O)c(C)c1 [Compound I-45] | < 1000 | < 1000
10 | Cc1cc(C)c(Oc2nc(-c3cncc(Cl)c3)ccc2NS(C)(=O)=O)c(C)n1 [Compound I-46] | < 1000 | < 1000
11 | Cc1cc(C)c(Oc2nc(N3CCN(C(=O)C4CC4)CC3)ccc2NS(C)(=O)=O)c(C)c1 [Compound I-47] | 1000 to 10000 | 1000 to 10000
12 | Cc1cc(C)c(Oc2nc(-c3cncc(Cl)c3)ccc2N(C)S(C)(=O)=O)c(C)c1 [Compound I-48] | < 1000 | < 1000
13 | Cc1cc(C)c(Oc2nc(-c3cncc(Cl)c3)ccc2NS(=O)(=O)C2CC2)c(C)c1 [Compound I-49] | < 1000 | > 25000
14 | CC(=O)NC1CN(c2ccc(NS(=O)(=O)c3cccnc3)c(Oc3c(C)cc(C)cc3C3CC3)n2)C1 [Compound I-50] | < 25000 | > 25000
15 | COC1CC(S(=O)(=O)Nc2ccc(-c3cncc(Cl)c3)nc2Oc2c(C)cc(C)cc2C)C1 (stereo not drawn) [Compound I-51] | < 1000 | > 25000
16 | Cc1cc(C)c(Oc2nc(-c3cncc(Cl)c3)ccc2N(C)S(=O)(=O)c2cnn(C)c2)c(C2CC2)c1 [Compound I-52] | < 1000 | < 1000
17 | Cc1cc(C)c(Oc2nc(-c3cncc(Cl)c3)ccc2N(C)S(=O)(=O)c2cccnc2)c(C2CC2)c1 [Compound I-53] | 1000 to 10000 | > 25000
18 | Cc1cc(C)c(Oc2nc(-c3cncc(Cl)c3)ccc2NS(=O)(=O)c2cccnc2)c(C2CC2)c1 [Compound I-54] | < 1000 | 1000 to 10000
19 | Cc1cc(C)c(Oc2nc(-c3cncc(Cl)c3)ccc2NS(C)(=O)=O)c(C)c1 [Compound I-55] | < 1000 | < 1000
20 | Cc1cc(C)c(Oc2cc(-c3cncc(Cl)c3)ncc2NS(C)(=O)=O)c(C)c1 [Compound I-56] | < 1000 | 1000 to 10000
21 | Cc1cc(C)c(Oc2nc(-c3cncc(Cl)c3)ccc2NS(C)(=O)=O)c(C2CC2)c1 [Compound I-57] | < 1000 | < 1000
22 | Cc1cc(C)c(Oc2nc(-c3cncc(Cl)c3)ccc2NS(=O)(=O)c2cnn(C)c2)c(C2CC2)c1 [Compound I-58] | < 25000 | > 25000
23 | Cc1cc(C)c(Oc2cc(-c3cncc(Cl)c3)cnc2N(C)S(=O)(=O)c2cnn(C)c2)c(C)c1 [Compound I-59] | ≥ 25000 | 1000 to 10000
24 | Cc1cc(C)c(Oc2cc(-c3cncc(Cl)c3)cnc2NS(C)(=O)=O)c(C)c1 [Compound I-60] | 1000 to 10000 | 1000 to 10000
